The text below walks through data of PubChem BioAssay AID1963985 (Molecular Pharmacology Branch, DTP, NCI, 2024).

Usually IC50 stands for the concentration that gives 50% inhibition. In general, viability, T/C refers to the ratio of treated to control.

This test deals with 252836-082-R-J2-PDC tumor spheroids, viability. As to the kind of experiment: Anticancer human tumor 252836-082-R-J2-PDC patient-derived head and neck squamous cell carcinoma cell line growth inhibition [PI3K]. To be noted: spheroids with HUVEC and MSC; for viability, T/C: stronger effect = lower value. An outline of the steps: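 Multi-cell spheroids combine tumor cells with HUVEC and human MSCs, treated with targeted agents alone or with inavolisib, alpelisib, duvelisib or copanlisib. Concentrations fall in half-log steps from at or near clinical Cmax, or from 10 microM where Cmax is unknown; viability read-out.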

Setting [1] is: curve of first compound, second compound 0.0316 µM.
[2] abbreviates: curve of first compound, second compound 0.1 µM.
The mark [3] stands for this setting: curve of first compound, second compound 0.316 µM.
Setting [4] is: curve of first compound, second compound 1 µM.
Setting [5] is: second compound 0.0316 µM, first compound 0.0316 µM.
The mark [6] stands for this setting: second compound 0.0316 µM, first compound 0.1 µM.
Where [7] appears, read: second compound 0.0316 µM, first compound 0.316 µM.
The mark [8] stands for this setting: second compound 0.0316 µM, first compound 1 µM.
The mark [9] stands for this setting: second compound 0.0316 µM, first compound 3.16 µM.
[10] abbreviates: second compound 0.0316 µM, first compound 10 µM.
Setting [11] is: second compound 0.1 µM, first compound 0.0316 µM.
The mark [12] stands for this setting: second compound 0.1 µM, first compound 0.1 µM.
[13] abbreviates: second compound 0.1 µM, first compound 0.316 µM.
[14] abbreviates: second compound 0.1 µM, first compound 1 µM.
The mark [15] stands for this setting: second compound 0.1 µM, first compound 3.16 µM.
The mark [16] stands for this setting: second compound 0.1 µM, first compound 10 µM.
Where [17] appears, read: second compound 0.316 µM, first compound 0.0316 µM.
[18] abbreviates: second compound 0.316 µM, first compound 0.1 µM.
Setting [19] is: second compound 0.316 µM, first compound 0.316 µM.
[20] abbreviates: second compound 0.316 µM, first compound 1 µM.
[21] abbreviates: second compound 0.316 µM, first compound 3.16 µM.
The mark [22] stands for this setting: second compound 0.316 µM, first compound 10 µM.
[23] abbreviates: second compound 1 µM, first compound 0.0316 µM.
Setting [24] is: second compound 1 µM, first compound 0.1 µM.
Where [25] appears, read: second compound 1 µM, first compound 0.316 µM.
Where [26] appears, read: second compound 1 µM, first compound 1 µM.
Where [27] appears, read: second compound 1 µM, first compound 3.16 µM.
Where [28] appears, read: second compound 1 µM, first compound 10 µM.
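Note: spheroids exposed to agents for seven days before readout.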
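Throughout, for viability, T/C: percent of vehicle DMSO control viability so 100% = untreated growth.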

`C#Cc1c(F)ccc2cc(O)cc(-c3ncc4c(N5CC6CCC(C5)N6)nc(OCC56CCCN5CC(F)C6)nc4c3F)c12` (stereo not given) + CC(Nc1ncnc2nc[nH]c12)c1cc2cccc(Cl)c2c(=O)n1-c1ccccc1: the IC50 by setting is: under setting [1], above 10 µM; under setting [2], above 10 µM; under setting [3], above 10 µM; under setting [4], above 10 µM; (curve of first compound, second compound 3.16 µM) above 10 µM; (curve of first compound, second compound 10 µM) 3.37 µM. Also, the viability, T/C is 90% under setting [5]; 78.4% under setting [6]; 82.8% under setting [7]; 86.4% under setting [8]; 82% under setting [9]; 63.6% under setting [10]. Moreover, the viability, T/C was 90.8% under setting [11]; 87% under setting [12]; 90.8% under setting [13]; 97.7% under setting [14]; 82.6% under setting [15]; 64.8% under setting [16]. Moreover, the viability, T/C by setting is: under setting [17], 96.1%; under setting [18], 92.9%; under setting [19], 90.1%; under setting [20], 87.5%; under setting [21], 73.5%; under setting [22], 65.4%. Also, the viability, T/C was 83.3% under setting [23]; 75.7% under setting [24]; 88.6% under setting [25]; 78.4% under setting [26]; 88.4% under setting [27]; 66.8% under setting [28]. The viability, T/C (second compound 3.16 µM, first compound 0.0316 µM) was 84.7%; the viability, T/C (second compound 3.16 µM, first compound 0.1 µM) is 67.6%; the viability, T/C (second compound 3.16 µM, first compound 0.316 µM) was 73.7%; the viability, T/C (second compound 3.16 µM, first compound 1 µM) is 75%; the viability, T/C (second compound 3.16 µM, first compound 3.16 µM) is 69%; the viability, T/C (second compound 3.16 µM, first compound 10 µM) is 62.6%. Further, the viability, T/C is, setting by setting: (second compound 10 µM, first compound 0.0316 µM) 54.5%; (second compound 10 µM, first compound 0.1 µM) 58.2%; (second compound 10 µM, first compound 0.316 µM) 53.9%; (second compound 10 µM, first compound 1 µM) 49.4%; (second compound 10 µM, first compound 3.16 µM) 55.6%; (second compound 10 µM, first compound 10 µM) 44.9%.

For the molecule `Cn1nccc1Nc1nccc(-c2ccn(C(CO)c3ccc(Cl)c(F)c3)c(=O)c2)n1` (stereo not given) + COc1c(OCCCN2CCOCC2)ccc2c3n(c(=NC(=O)c4cnc(N)nc4)nc12)CCN3, the IC50 reads like this: (curve of first compound, second compound 0.00316 µM) above 10 µM; (curve of first compound, second compound 0.01 µM) above 10 µM; under setting [1], 4.37 µM; under setting [2], below 0.0316 µM; under setting [3], below 0.0316 µM; under setting [4], below 0.0316 µM. Also, the viability, T/C (second compound 0.00316 µM, first compound 0.0316 µM) was 99.2%; the viability, T/C (second compound 0.00316 µM, first compound 0.1 µM) was 86.3%; the viability, T/C (second compound 0.00316 µM, first compound 0.316 µM) is 98%; the viability, T/C (second compound 0.00316 µM, first compound 1 µM) is 90%; the viability, T/C (second compound 0.00316 µM, first compound 3.16 µM) is 78.3%; the viability, T/C (second compound 0.00316 µM, first compound 10 µM) was 70.3%. Moreover, the viability, T/C runs as follows: (second compound 0.01 µM, first compound 0.0316 µM) 77.4%; (second compound 0.01 µM, first compound 0.1 µM) 78.3%; (second compound 0.01 µM, first compound 0.316 µM) 81.7%; (second compound 0.01 µM, first compound 1 µM) 79.1%; (second compound 0.01 µM, first compound 3.16 µM) 75.8%; (second compound 0.01 µM, first compound 10 µM) 50.2%. Further, the viability, T/C was 53% under setting [5]; 65.4% under setting [6]; 56.3% under setting [7]; 56.8% under setting [8]; 57.8% under setting [9]; 31.1% under setting [10]. The viability, T/C under setting [11] was 40.4%; the viability, T/C under setting [12] is 33.8%; the viability, T/C under setting [13] is 38.5%; the viability, T/C under setting [14] was 34.8%; the viability, T/C under setting [15] was 31.9%; the viability, T/C under setting [16] is 19.5%. Besides, the viability, T/C is 15.8% under setting [17]; 14.1% under setting [18]; 15.3% under setting [19]; 10.4% under setting [20]; 7.12% under setting [21]; 4.49% under setting [22]. Moreover, the viability, T/C is, setting by setting: under setting [23], 4.18%; under setting [24], 4.13%; under setting [25], 3.93%; under setting [26], 1.52%; under setting [27], 1.98%; under setting [28], 0.32%.

In the case of `CCCS(=O)(=O)Nc1ccc(F)c(C(=O)c2c[nH]c3ncc(-c4ccc(Cl)cc4)cc23)c1F`, the viability, T/C (compound 0.0316 µM) is 99% [middle of 4 runs]; the viability, T/C (compound 1 µM) is 96.2% [middle of 4 runs]; the viability, T/C (compound 3.16 µM) is 90% [middle of 4 runs]; the viability, T/C (compound 10 µM) is 8.42% [middle of 4 runs]. The IC50 (curve of compound) is 5.49 µM [middle of 4 runs].

Take `CC(Nc1ccc2c(c1)OCCn1cc(N3C(=O)OCC3C(F)F)nc1-2)C(N)=O` (stereo not given): the viability, T/C (compound 0.00316 µM) is 93% [middle of 8 runs]; the viability, T/C (compound 0.01 µM) is 96.8% [middle of 8 runs]; the viability, T/C (compound 0.0316 µM) is 81% [middle of 8 runs]; the viability, T/C (compound 0.1 µM) is 65.7% [middle of 8 runs]; the viability, T/C (compound 0.316 µM) is 51.8% [middle of 8 runs]; the viability, T/C (compound 1 µM) is 47.7% [middle of 8 runs].
